# Results from patent publication US20040025201A1, “True breeding transgenics from plants heterozygous for transgene insertions” (New Zealand Institute for Crop & Food Research Lim, priority 1995, published 2004).
# Key:
# Type in all cases: in vivo
# [1] = tested on: Brassica napus plants heterozygous for the chlorsulfuron-resistant mutation (wt×30b); experiment: Experiment 5 part (d): back-crossed progeny ((wt×30b)×30b) of sprayed female parent; conditions: heterozygous female parent sprayed just prior to bolting
# Procedure: (§1) The heterozygous plants were allowed to self pollinate and resulting seeds harvested at maturity. This next generation was screened for chlorsulfuron resistance as previously described (Conner et al. (1994). Briefly, this involved surface sterilizing the seeds (10-12 minutes in 1% sodium hypochlorite, plus a drop of Tween 20), followed by 2-3 rinses in sterile water, then sowing the seeds in vitro onto the surface of a medium consisting of half strength MS salts at pH 5.8 (Murashige and Skoog Physiologia Plantarum 15:473-497 (1962)) supplemented with 10 ug/liter chlorsulfuron and 6.5 g/liter agar. Seeds were then germinated at 24-26° C. under cool white fluorescent lights (80-100) umol/m2/sec; 16 h light: 8 h darkness daily).
# (§2) Seeds generally germinated after 3-4 days and were scored for chlorsulfuron resistance 5-7 days after sowing. Resistant seedlings had long healthy roots (4-6 cm) that penetrated into the gelled medium, with healthy green cotyledons.
# (§3) To further explore the underlying reasons accounting for the induced skewed segregation, additional crosses using the 30b mutant were performed. At specified times the plants were sprayed with chlorsulfuron and the progeny evaluated as described in Experiment 1 above.
# Part (d). Plants heterozygous for the chlorsulfuron-resistant mutation (wt×30b) were either not sprayed, or sprayed with chlorsulfuron just prior to bolting. […]
# [2] = tested on: Transgenic potato plants (Solanum tuberosum cv. Iwa), line SCI1; experiment: Experiment 4: segregation of GUS activity in selfed progeny of sprayed transgenic potato; conditions: sprayed once three weeks after planting, 20 g/ha
# Description: The Solanum tuberosum, subspecies tuberosum, plant line used: SCI1 (Conner et al., Journal of Cellular Biochemistry 13D: 333 (1989)). This line of potato is transformed with the T-DNA from pKIWI100 and expresses transgenes conferring kanamycin resistance, β-glucuronidase (GUS) activity, and chlorsulfuron resistance. The cultivated varieties of potato grown in the United States and Europe are predominantly tetraploid (i.e., four complete sets of chromosomes) (Plaisted, R. L., Potato, Chapter 34:483-494, In Hybridization of Crop Plants, supra; Allard, pg. 6, supra.
# Plants of the original transgenic line were vegetatively propagated via tubers which were planted in a containment greenhouse. Soon after sprouting (three weeks after planting) the plants were sprayed once with either water of chlorsulfuron at the equivalent rate of 20 g/ha Plants were self pollinated at flowering and berries harvested 15 weeks after spraying. Seeds were extracted and germinated, and the progeny histochemically screened for GUS activity.
# [3] = tested on: Transgenic forage brassica plants (Brassica napus cv. Giant), line G/HR10; experiment: Experiment 3: segregation of GUS activity in selfed progeny of sprayed transgenic forage brassica; conditions: sprayed once prior to bolting, 20 g/ha
# Description: Plant line used: G/HR10 (Christey and Sinclair, Plant Science: 87 161-169 (1992)). This line contains a single insertion of the T-DNA from pKIWI110 and expresses transgenes conferring kanamycin resistance, β-glucuronidase (GUS) activity, and chlorsulfuron resistance.
# Plants of the original transgenic line were cloned in vitro, then transferred to a containment greenhouse. […] The plants were allowed to self-pollinate and the seeds were harvested five months after spraying. The progeny germinated and histochemically screened for GUS activity.
# [4] = tested on: Brassica napus (30b) mutant; experiment: Experiment 1: segregation of chlorsulfuron resistance in selfed progeny of sprayed heterozygous plants
# Description: A homozygous line of a Brassica napus (30b) mutant, with a single gene conferring sulfonylurea resistance (Conner et al., Proceedings of the 47th New Zealand Plant Protection Conference, 173-177 (1994)), was used in this study. Brassica napus are self-fertile, with about 80% of the seed normally arising from self-pollination, although a greater degree of cross-pollination may occur when insect pollinators are abundant (Downey et al., Rapeseed and Mustard, Chapter 35:495-509, In Hybridization of Crop Plants, supra). B. napus is commonly referred to as canola, rape and oilseed rape.
# The 30b mutant line was hybridized to a herbicide-sensitive genotype to generate a seed population heterozygous for sulfonylurea resistance. These heterozygous seeds were sown, repotted into individual pots in a greenhouse, and individuals were randomly divided into 3 populations:
# (ii) plants sprayed once with chlorsulfuron (a sulfonylurea herbicide) at a rate of 3 mg/liter until runoff, just as the plants were beginning to bolt (development of flowering stems) (19 plants).
# (iii) plants sprayed with chlorsulfuron at a rate of 3 mg./liter until runoff, just as the plants were beginning to bolt, and then every 2 weeks until initiation of plant senescence (18 plants).
# as §1, §2
# [5] = tested on: Brassica napus mutant (19c); experiment: Experiment 2: segregation of chlorsulfuron resistance in selfed progeny of sprayed heterozygous plants
# Procedure: as §1, §2
# A further chlorsulfuron-resistant Brassica napus mutant (19c), of independent origin to mutant 30b (Conner et al., Proceedings of the 47th New Zealand Plant Protection Conference, 173-177 (1994)) was subjected to identical experiments described above for mutant 30b.
# [6] = tested on: Brassica napus plants heterozygous for the chlorsulfuron-resistant mutation (wt×30b); experiment: Experiment 5 part (a): self-pollinated seed of heterozygous plants sprayed at varying times
# Procedure: as §1, §2, §3
# Part (a). Plants heterozygous for the chlorsulfuron-resistant mutation (wt×30b) were either not sprayed, or sprayed with chlorsulfuron at varying times during development. The self-pollinated seed was harvested, and the germinated seedlings were screened for chlorsulfuron resistance.
# [7] = tested on: Brassica napus plants heterozygous for the chlorsulfuron-resistant mutation (wt×30b); experiment: Experiment 5 part (c): back-crossed progeny (wt×(wt×30b)) of sprayed pollen parent; conditions: pollen parent sprayed just prior to bolting
# Procedure: as §1, §2, §3
# Part (c). Plants heterozygous for the chlorsulfuron-resistant mutation (wt×30b) were either not sprayed, or sprayed with chlorsulfuron just prior to bolting. The pollen from these plants was back-crossed to non-sprayed wildtype plants, and the resulting progeny (wt×(wt×30b)) were screened for chlorsulfuron resistance as described in Experiment 1.
# [8] = tested on: Brassica napus plants heterozygous for the chlorsulfuron-resistant mutation (wt×30b); experiment: Experiment 5 part (b): back-crossed progeny ((wt×30b)×wt) of sprayed ovule parent
# Procedure: as §1, §2, §3
# Part (b). Plants heterozygous for the chlorsulfuron-resistant mutation (wt×30b) were either not sprayed, or sprayed with chlorsulfuron at varying times during development. The back crossed-progeny ((wt×30b)×wt), resulting from pollen from non-sprayed wildtype plants were screened for chlorsulfuron resistance as described in Experiment 1.
# [9] = total of 18 plants repeatedly sprayed
# [10] = total of 19 plants sprayed once
# [11] = sprayed 2 weeks after pods full size
# [12] = sprayed at pods reaching full size
# [13] = sprayed at seedlings (2-3 leaves)
compound,measurement,setting,value
COc1nc(C)nc(NC(=O)NS(=O)(=O)c2ccccc2Cl)n1 [chlorsulfuron],Number herbicide-sensitive seedlings,[1],0
same,Number of herbicide-resistant seedlings,[1],111
same,GUS-negative progeny,[2],12
same,GUS-positive progeny,[2],136
same,GUS-negative progeny,[3]; Population A,13
same,GUS-positive progeny,[3]; Population A,78
same,GUS-negative progeny,[3]; Population B,16
same,GUS-positive progeny,[3]; Population B,96
same,Resistance of progeny of sprayed heterozygous plants (in words),[4]; both spray regimes,virtually all the progeny obtained were resistant to chlorsulfuron
same,"Number of herbicide-resistant progeny, Total",[4]; [9],728
same,"Number of herbicide-sensitive progeny, Total",[4]; [9],2
same,"Number of herbicide-resistant progeny, Total",[4]; [10],1588
same,"Number of herbicide-sensitive progeny, Total",[4]; [10],17
same,Number of herbicide-resistant seedlings,[5]; repeated fortnightly sprays from bolting,96
same,Number of herbicide-resistant seedlings,[5]; sprayed just prior to bolting,398
same,Number of herbicide-sensitive seedlings,[5]; sprayed just prior to bolting,31
same,Number of herbicide-resistant seedlings,[6]; [11],184
same,Number of herbicide-sensitive seedlings,[6]; [11],26
same,Number of seeds per pod,[6]; [11],6.2
same,Number of herbicide-resistant seedlings,[6]; [12],160
same,Number of herbicide-sensitive seedlings,[6]; [12],16
same,Number of seeds per pod,[6]; [12],5.8
same,Number of herbicide-resistant seedlings,[6]; [13],440
same,Number of herbicide-sensitive seedlings,[6]; [13],11
same,Number of seeds per pod,[6]; [13],5.6
same,Number of herbicide-resistant seedlings,[6]; sprayed just prior to bolting,565
same,Number of herbicide-sensitive seedlings,[6]; sprayed just prior to bolting,5
same,Number of seeds per pod,[6]; sprayed just prior to bolting,5.4
same,Number of herbicide-resistant seedlings,[7],381
same,Number of herbicide-sensitive seedlings,[7],112
same,Number of seeds per pod,[7],6.3
same,Number of herbicide-resistant seedlings,[8]; [11],104
same,Number of herbicide-sensitive seedlings,[8]; [11],37
same,Number of seeds per pod,[8]; [11],4.3
same,Number of herbicide-resistant seedlings,[8]; [12],127
same,Number of herbicide-sensitive seedlings,[8]; [12],28
same,Number of seeds per pod,[8]; [12],4.0
same,Number of herbicide-resistant seedlings,[8]; sprayed just prior to bolting,134
same,Number of herbicide-sensitive seedlings,[8]; sprayed just prior to bolting,5
same,Number of seeds per pod,[8]; sprayed just prior to bolting,3.4
